Experimental data taken from patent US20190060249A1 (priority 2017, published 2019).

Legend:
ALDH3A1 = target: T1, ALDH3A1 (Homo sapiens, UniProt P30838); test: ALDH enzymatic assay (spectrophotometric), recombinant ALDH3A1; format: biochemical
T1 sequence (P30838 1-453): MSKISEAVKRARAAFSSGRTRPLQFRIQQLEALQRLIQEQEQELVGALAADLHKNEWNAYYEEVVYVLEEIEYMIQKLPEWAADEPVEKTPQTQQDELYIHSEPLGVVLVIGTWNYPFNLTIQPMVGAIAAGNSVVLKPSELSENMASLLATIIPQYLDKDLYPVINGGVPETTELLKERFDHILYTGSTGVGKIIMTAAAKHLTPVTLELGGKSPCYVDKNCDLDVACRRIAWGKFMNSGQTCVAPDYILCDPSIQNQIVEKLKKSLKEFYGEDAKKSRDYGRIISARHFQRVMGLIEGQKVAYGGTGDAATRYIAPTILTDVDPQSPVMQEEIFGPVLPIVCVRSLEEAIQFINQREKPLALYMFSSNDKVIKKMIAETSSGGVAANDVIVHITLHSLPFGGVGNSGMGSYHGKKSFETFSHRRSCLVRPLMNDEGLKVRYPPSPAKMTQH
Source text: To determine if ALDH3A1 activation is sufficient to protect salivary glands from radiation-induced dysfunction, a library of 135 traditional Chinese medicine extracts donated from Sun Ten Pharmaceutical Co., Taiwan, was screened using a spectroscopic enzyme activity assay and purified recombinant ALDH3A1. […] We then conducted high performance liquid chromatography (HPLC) fractionation of the extracts and nuclear magnetic resonance (NMR) characterization of the fractions. Based on the NMR fingerprint, we identified known constituents of similar fingerprints and purchased the commercially available compounds to test using the enzyme activity assay.
ALDH enzymatic assay: ALDH1A1, ALDH1A2, 2, 3A1, 3A2, 4A1, 5A1, 7A1 were measured as previously described using 5 μg/ml of recombinant protein (Chen, C. H., Cruz, L. A., and Mochly-Rosen, D. (2015) Pharmacological recruitment of aldehyde dehydrogenase 3A1 (ALDH3A1) to assist ALDH2 in acetaldehyde and ethanol metabolism in vivo. Proceedings of the National Academy of Sciences of the United States of America 112, 3074-3079). […] Assays were conducted in 50 mM NaPPi buffer (pH 7.4) in the presence of 2.5 mM NAD^+ and 10 mM substrate and measured in triplicate at 25° C. Dose response curve fits and EC50's were calculated using GraphPad Prism 7 software.
Activity measured in presence of compound concentrations from 6 nM to 400 μM.

[1] = tested on: mouse model of radiation-induced hyposalivation; test: Mouse model of radiation-induced hyposalivation; format: in vivo
Source text: In one experiment, mice were irradiated with a single dose of 15 Gy and in a second experiment with 6 Gy/d for 5 d for a total of 30 Gy. […] Starting 8 weeks after radiation, the control and treatment groups were further segmented into four groups.
On day 5 of the 30 Gy radiation dose, SMG were removed, fixed, and stained for cleaved caspase 3 to determine the extent of apoptosis (FIG. 4E).
Saliva collection: Female C57/BL-6 mice, 8-10 weeks old, were ordered from Jackson Labs. […] 15 Gy single dose or 30 Gy fractionated over 5 d (6 Gy/d) were delivered to the SMG with the rest of the body lead shielded. Stimulated saliva was measured as described in, Lombaert, I. M., Brunsting, J. F., Wierenga, P. K., Faber, H., Stokman, M. A., Kok, T., Visser, W. H., Kampinga, H. H., de Haan, G., and Coppes, R. P. (2008) Rescue of salivary gland function after stem cell transplantation in irradiated glands. PloS one 3, e2063. Mice were anesthetized with a ketamine (80 mg/kg) and xylazine (16 mg/kg) mixture delivered by intraperitoneal injection and subcutaneously injected with 2 mg/kg pilocarpine. Saliva was collected for 15 minutes. Saliva volume was calculated by assuming […] and was normalized to the mouse body weight by dividing the total collected saliva volume by the mass of the mouse (kg).
Periodic acid schiff staining and acinar quantification: SMG were removed from mice, fixed in 10% formalin for 24 h, and paraffin-embedded. 10 images per group were taken at random at 30× magnification using a Leica DM6000 B microscope. Acinar regions were quantified using RT_Image software (Graves, E. E., Quon, A., and Loo, B. W., Jr. (2007) RT_Image: an open-source tool for investigating PET in radiation oncology. Technology in cancer research & treatment 6, 111-121). Images were separated into red, green, and blue color channels, blurred using a 20 pixel box filter, and segmented using an intensity contour of 110 with a minimum area of 100 um^2. Acinar area was calculated as a percentage of acinar area relative to the area of the microscopy field.
Cleaved caspase 3 staining: SMG were removed from mice, fixed in 10% formalin for 24 h, and paraffin-embedded. Sections were stained with Caspase 3 rabbit antibody (Cell Signaling, 9664), 1:200 dilution, and DAPI. Three random images using red and blue filters were taken at 100× magnification with a Leica DM6000 B microscope from each gland (6-8 glands/group) and quantified by counting cleaved caspase-3 positive (red) cells per field.
RNA-sequencing: Samples were extracted using Qiagen miRNeasy Kit (217084). Extracted samples were assessed for quality using Agilent Pico-RNA bio-analyzer chip (5067-1513). The Smarter Ultra Low Input RNA kit (Clontech, 634848) was used to generate cDNA from total RNA. Amplified cDNA was purified using SPRI Ampure Beads from Beckman Coulter, and quality and quantity were measured using a High Sensitivity DNA chip on an Agilent 2100 Bioanalyzer. cDNA was sheared to an average length of 300 BP using a Covaris S2, and libraries were generated following the Clontech Low Input Library Prep kit (634947). Indexed libraries were pooled and quantitated for sequencing. Sequencing data was generated on an Illumina HiSeq 4000. The processed RNAseq reads were imported into BRB-ArrayTools, an integrated package for the visualization and statistical analysis of gene expression data developed by Dr. Richard Simon and BRB-ArrayTools Development Team. The imported expression values were log2-transformed and subjected to quantile normalization by Robust Multi-chip Average (RMA). Genes that show differential expression between those untreated and irradiated (univariate p-value <0.01) were selected. To identify functional networks and pathways enriched in these significant genes, these genes were analyzed using MetaCore™. For heatmap generation the Clustering function of ArrayTools was used, with experimental samples in fixed grouping and order, and genes ordered by hierarchical clustering.

[2] = EpCAM+ cells isolated from SMG 2 weeks after 30 Gy

## C=C(C)[C@H]1CC=C(C)CC1 [Alda-341, D-limonene]
ALDH3A1; 10 mM acetaldehyde, propionaldehyde, benzaldehyde, cinnamaldehyde, decanal, heptaldehyde or 200 μM 4-hydroxynonenal, 100 μM compound
  substrate specificity of increase in ALDH3A1 catalytic activity: only increase the catalytic activity of ALDH3A1 towards small aldehydes like acetaldehyde and propionaldehyde but not aromatic or long-chain aldehydes
ALDH3A1; normalized to baseline activity, GraphPad Prism curve fit
  Amax: ~4.6
ALDH3A1; recombinant ALDH3A1, spectrophotometric enzyme activity assay, concentrations 6 nM to 400 μM
  EC50: ~14 µM
[1]; 10% Alda-341 in chow from 1 w prior to radiation and continuously after, single 15 Gy or 30 Gy (6 Gy/d for 5 d)
  saliva production after radiation: retained near baseline saliva production levels
[1]; Alda-341 from 24 h after radiation, stopped 8 weeks after radiation
  saliva production, Alda-341 stopped: rapid decline in saliva production
[1]; Alda-341 starting 24 h after the final dose of radiation, continuous, 20 weeks
  saliva levels, continuous Alda-341: sustained significantly higher saliva levels over 20 weeks
[1]; Alda-341 treatment begun 8 weeks after radiation
  saliva production, Alda-341 begun late: did not show significant improvement in saliva production
[1]; [2]
  apoptotic-related gene expression (RNA-sequencing): a decrease in apoptotic-related gene expression
  glutathione metabolism (RNA-sequencing): increased glutathione metabolism
  immune response (RNA-sequencing): decreased immune response
[1]; after 20 weeks, continuous Alda-341
  more acinar cell preservation (PAS staining) vs group that never received Alda-341: ~70%
[1]; continuous Alda-341 after radiation
  improvement in sphere-forming ability of dissociated SMG vs no treatment: ~30 fold
[1]; day 5 of the 30 Gy radiation dose, Alda-341 before radiation
  number of apoptotic cells (cleaved caspase 3 staining): reduced the number of apoptotic cells to near non-irradiated levels
[1]; eight weeks after 30 Gy, Alda-341 from 1 w prior to radiation
  preservation of acinar area: 90%
